Results as given in patent US7282150B2, “Method of extracting and method of purifying an effective substance” (Ezaki Glico Co., Ltd., priority 2001, dated 2007).

How the values were obtained:
[1] = cited from earlier work
[2] = THF extraction of unconcentrated or concentrated glucoamylase-treated glycosylation reaction solution; format: physicochemical; conditions: for Extraction rate (%), THF phase total: three THF extractions, 30° C.
Protocol: Thereafter, glucoamylase treatment was performed at 45° C. for 4 hours, thereby obtaining a reaction solution. […] Extraction was conducted under a condition of 30° C. The mixture was allowed to stand for 1 hour. The mixture was separated into two phases. The upper THF phase was recovered. […] The obtained THF phases were combined together. Note that although an intermediate layer was generated in the concentrate during the phase separation, the intermediate layer was included in the aqueous phase.

[3] = THF extraction of glucoamylase (XL-4) treated glycosylation reaction solution; format: physicochemical; conditions: 1 ml + 1 ml THF
Protocol: Thereafter, the mixture was incubated at 45° C. for 3 or 4 hours. After the incubation, the contents of glucose and maltose in the solution were confirmed by a HPLC analysis method. […] Glucose and maltose in the eluate were detected by a RI detector. […] After shaking, the mixture was allowed to stand for 1 hour. […] The aqueous phase was recovered. […] The amounts of glucose and maltose were measured by an HPLC analysis method using the aqueous phase. […] Glucose and maltose in the eluate were detected by a RI detector. […] Based on the obtained results and the above-described glucose concentration, maltose concentration and HQG concentration before extraction with THF, the extraction rate to the THF phase was calculated.

[4] = Extraction from aqueous 30% glucose + 10% sodium chloride solution with acetone or isopropanol (absorbance at 280 nm of aqueous phase); format: physicochemical; conditions: single extraction; for starting amount extracted in the acetone phase: 10 ml acetone + 10 ml aqueous solution containing 30% glucose and 10% sodium chloride; for starting amount extracted in the isopropanol phase: 10 ml isopropanol + 10 ml aqueous solution containing 30% glucose and 10% sodium chloride
Protocol: (§1) 1 g of a mixture of catechins (SUNPHENON®; manufactured by Taiyo Kagaku) was dissolved in 100 ml of an aqueous solution containing 30% glucose and 10% sodium chloride to obtain a sample aqueous solution. The absorbance at 280 nm of the sample aqueous solution was measured. […] Thereafter, the mixture was allowed to stand for 30 minutes. […] The lower phase (aqueous phase) was recovered, and the volume and the absorbance at 280 nm thereof were measured. The amount of the catechins extracted in the upper phase (polar organic solvent phase) was calculated from a reduction in the absorbance at 280 nm of the lower phase and the solution volume of the lower phase.
This additional extraction operation to Example 2a was conducted except for use of 10 ml of isopropanol instead of 10 ml of acetone.
as §1, with “hesperidin glycosides (Toyo Sugar Refining Co., Ltd.) were” for “a mixture of catechins (SUNPHENON®; manufactured by Taiyo Kagaku) was”, “hesperidin glycosides” for “the catechins”, “phase. […] Further, similar operations and measurements were performed twice more by adding 5 ml of acetone to the aqueous phase recovered after the acetone extraction.” for “phase.”
This additional extraction operation to Example 4a was conducted except for use of 10 ml of isopropanol instead of 10 ml of acetone.
as §1, with “salicin” for “a mixture of catechins (SUNPHENON®; manufactured by Taiyo Kagaku)”, “salicin” for “the catechins”
This additional extraction operation to Example 6a was conducted except for use of 10 ml of isopropanol instead of 10 ml of acetone.
as §1, with “caffeic acid” for “a mixture of catechins (SUNPHENON®; manufactured by Taiyo Kagaku)”, “caffeic acid” for “the catechins”
This additional extraction operation to Example 8a was conducted except for use of 10 ml of isopropanol instead of 10 ml of acetone.
as §1, with “0.1 g” for “1 g”, “of salicyl alcohol” for “of a mixture of catechins (SUNPHENON®; manufactured by Taiyo Kagaku)”, “of salicyl alcohol” for “of the catechins”
This additional extraction operation to Example 10a was conducted except for use of 10 ml of isopropanol instead of 10 ml of acetone.

[5] = Extraction from aqueous 30% glucose solution with tetrahydrofuran or acetonitrile (absorbance at 280 nm of aqueous phase); format: physicochemical; conditions: single extraction; for starting amount extracted in the tetrahydrofuran phase: 10 ml THF + 10 ml aqueous solution containing 30% glucose; for starting amount extracted in the acetonitrile phase: 10 ml acetonitrile + 10 ml aqueous solution containing 30% glucose
Protocol: as §1, with “Kagaku Co., Ltd.)” for “Kagaku)”, “glucose” for “glucose and 10% sodium chloride”
This additional extraction operation to Example 1a was conducted except for use of 10 ml of acetonitrile instead of 10 ml of tetrahydrofuran.
as §1, with “hesperidin glycosides (manufactured” for “a mixture of catechins (SUNPHENON®; manufactured”, “Toyo Sugar Refining Co., Ltd.) were” for “Taiyo Kagaku) was”, “glucose” for “glucose and 10% sodium chloride”, “hesperidin glycosides” for “the catechins”, “phase. […] Further, similar operations and measurements were performed twice more by adding 5 ml of tetrahydrofuran to the aqueous phase recovered after the tetrahydrofuran extraction.” for “phase.”
This additional extraction operation to Example 3a was conducted except for use of 10 ml of acetonitrile instead of 10 ml of tetrahydrofuran.
as §1, with “salicin” for “a mixture of catechins (SUNPHENON®; manufactured by Taiyo Kagaku)”, “glucose” for “glucose and 10% sodium chloride”, “salicin” for “the catechins”
This additional extraction operation to Example 5a was conducted except for use of 10 ml of acetonitrile instead of 10 ml of tetrahydrofuran.
as §1, with “caffeic acid” for “a mixture of catechins (SUNPHENON®; manufactured by Taiyo Kagaku)”, “glucose” for “glucose and 10% sodium chloride”, “caffeic acid” for “the catechins”
This additional extraction operation to Example 7a was conducted except for use of 10 ml of acetonitrile instead of 10 ml of tetrahydrofuran.
as §1, with “salicyl alcohol” for “a mixture of catechins (SUNPHENON®; manufactured by Taiyo Kagaku)”, “glucose” for “glucose and 10% sodium chloride”, “salicyl alcohol” for “the catechins”
This additional extraction operation to Example 9a was conducted except for use of 10 ml of acetonitrile instead of 10 ml of tetrahydrofuran.

[6] = Acetone extraction of hesperidin from orange juice concentrate with sodium chloride (HPLC); format: physicochemical; conditions: single extraction, orange juice five-fold concentrate + equal volume 15% sodium chloride solution
Protocol: 10 ml of 15% sodium chloride solution was added to 10 ml of California orange juice concentrate (five-fold concentrate), and stirred to homogeneity, thereby obtaining an aqueous solution. The amount of hesperidin in the California orange juice concentrate used was measured by HPLC using a column ODS, where the mobile phase was a mixture of acetonitrile and water at 20:80, the flow rate was 0.5 ml/min, and the column temperature was 40° C. The absorbance of the eluate was detected at 280 nm. A specific method of detecting the amount of hesperidin is described in Japanese Laid-Open Publication No. 8-80177. […] Thereafter, the mixture was allowed to stand for 30 minutes. […] The upper phase (polar organic solvent phase) was recovered, and the volume thereof was measured. The amount of hesperidin was measured by HPLC as described above. As a result, by a single extraction operation, 75% of hesperidin was extracted in the acetone phase.

[7] = Influence of temperature on extraction to a tetrahydrofuran phase; format: physicochemical; conditions: aqueous phase made up to 5 ml
Protocol: Thereafter, the mixture was incubated at 45° C. for 4 hours to obtain a post-glucoamylase treatment reaction solution. […] Thereafter, the mixture was centrifuged at 3000 rpm for 5 minutes. […] The aqueous phase was recovered.

[8] = unconcentrated amylase treatment reaction solution

COc1ccc([C@@H]2CC(=O)c3c(O)cc(O[C@@H]4O[C@H](CO)[C@@H](O)[C@H](O)[C@H]4O[C@@H]4O[C@@H](C)[C@H](O)[C@@H](O)[C@H]4O)cc3O2)cc1O [neohesperidin]
solubility in water [1]: poorly soluble in water

OC[C@H]1O[C@H](O[C@H]2[C@H](O)[C@@H](O)C(O)O[C@@H]2CO)[C@H](O)[C@@H](O)[C@@H]1O (mixture of isomers) [Maltose, maltose]
Corrected concentration (equivalent in 5 ml) %, THF phase total ([2]; 70% concentrate): 0% | Extraction rate (%), THF phase total ([2]; 70% concentrate): 0% | Corrected concentration (equivalent in 5 ml) %, THF phase total ([2]; 80% concentrate): 0% | Extraction rate (%), THF phase total ([2]; 80% concentrate): 0% | Corrected concentration (equivalent in 5 ml) %, THF phase total [2, 8]: 0.1% | Extraction rate (%), THF phase total [2, 8]: 3.2% | Extraction rate to THF (%) ([3]; (XL-4) 1-fold glucoamylase treatment solution): 38.6% | Extraction rate to THF (%) ([3]; (XL-4) 1.5-fold glucoamylase treatment solution): 33.0% | Extraction rate to THF (%) ([3]; (XL-4) 2-fold glucoamylase treatment solution): 36.4%

O=C(O)/C=C/c1ccc(O)c(O)c1 [caffeic acid]
starting amount extracted in the acetone phase [4]: 78.2% | starting amount extracted in the isopropanol phase [4]: 87.2% | starting amount extracted in the tetrahydrofuran phase [5]: 88.6% | starting amount extracted in the acetonitrile phase [5]: 76.2%

C[C@@H]1O[C@@H](O[C@H]2[C@H](Oc3cc(O)c4c(c3)O[C@H](c3ccc(O)cc3)CC4=O)O[C@H](CO)[C@@H](O)[C@@H]2O)[C@H](O)[C@H](O)[C@H]1O [naringin]
solubility in water [1]: poorly soluble in water

COc1ccc([C@@H]2CC(=O)c3c(O)cc(O[C@@H]4O[C@H](CO[C@@H]5O[C@@H](C)[C@H](O)[C@@H](O)[C@H]5O)[C@@H](O)[C@H](O)[C@H]4O)cc3O2)cc1O [hesperidin]
hesperidin extracted in the acetone phase [6]: 75% | solubility in acetone [1]: insoluble in acetone | solubility in water [1]: poorly soluble in water

OCc1ccccc1O[C@@H]1O[C@H](CO)[C@@H](O)[C@H](O)[C@H]1O [salicin]
starting amount extracted in the acetone phase [4]: 58.0% | starting amount extracted in the isopropanol phase [4]: 97.0% | starting amount extracted in the tetrahydrofuran phase [5]: 96.5% | starting amount extracted in the acetonitrile phase [5]: 98.1%

Oc1ccc(O)cc1 [HQ, hydroquinone]
concentration of the aqueous phase after THF extraction ([7]; 3° C.): 0.9% | concentration of the aqueous phase after THF extraction ([7]; 10° C.): 0.7% | concentration of the aqueous phase after THF extraction ([7]; 20° C.): 1.0% | concentration of the aqueous phase after THF extraction ([7]; 22° C.): 1.0% | concentration of the aqueous phase after THF extraction ([7]; 30° C.): 1.0% | concentration of the aqueous phase after THF extraction ([7]; 45° C.): 1.2%

C[C@@H]1O[C@@H](OC[C@H]2O[C@@H](Oc3c(-c4ccc(O)c(O)c4)oc4cc(O)cc(O)c4c3=O)[C@H](O)[C@@H](O)[C@@H]2O)[C@H](O)[C@H](O)[C@H]1O [rutin]
solubility in acetone [1]: insoluble in acetone | solubility in water [1]: poorly soluble in water

OCc1ccccc1O [salicyl alcohol]
starting amount extracted in the acetone phase [4]: 87.7% | starting amount extracted in the isopropanol phase [4]: 98.7% | starting amount extracted in the tetrahydrofuran phase [5]: 98.7% | starting amount extracted in the acetonitrile phase [5]: 98.2%
